Values joined by “and” are separate entries in the source; they are usually repeats but may differ in a detail not shown here. Equal entries are not always repeated.
Key:
[1] = tested on: carrageenan-induced paw edoema; test: Carrageenan-induced rat paw edoema; assay type: in vivo, Wistar albino rats; details: rat, 50 mg/kg oral; for % of edoema inhibition (% mean ± SEM), 1 h: 1 h after carrageenan; for % of edoema inhibition (% mean ± SEM), 2 h: 2 h after carrageenan; for % of edoema inhibition (% mean ± SEM), 3 h: 3 h after carrageenan; for % of edoema inhibition (% mean ± SEM), 4 h: 4 h after carrageenan
Description: The anti-inflammatory activity of the inspiring active compounds in vitro (4c, 4d, 6a, 6c, 6d and 6e) were further estimated in vivo using the carrageenan-induced paw edoema test. […] The paw thickness was assessed using Vernier calliper after carrageenan injection for 1,2, 3 and 4 h. Wistar albino rats (males weighing 120–140 g, six rats per group) were grouped as follows: Group 1 (Control) rats were received the vehicle. […] The percentage inhibition of edoema thickness was calculated at each time interval in comparison to the control group.

[2] = tested on: LPS-induced NO production in RAW 264.7 cells; test: Griess assay for NO release from LPS-stimulated RAW 264.7 cells; assay type: cell-based; details: Mus musculus, RAW264.7; for inhibition at 5 µM: compounds at 5 µM, 2 h before LPS, RAW 264.7 cells, read-out: NO Inhibition rates (%) ± SD; for IC50: LPS-induced RAW 264.7 cells
Description: Equal volumes of Griess reagent and the supernatant, obtained from treated RAW264.7 cells with the compounds 2 h before LPS induction, were mixed for 10 min at room temperature in the dark. The absorbance was measured at 540 nm using ELISA plate reader and the nitrite concentration was calculated from sodium nitrite standard curve. The percentage inhibition (%) is calculated as absorbance at 540 nm of (LPS-compounds)/absorbance at 540 nm of (LPS-control) ×100[47]^,[48].

[3] = MTT cytotoxicity assay on RAW 264.7 cells; assay type: cell-based; details: mouse; for IC50 at 20 h: with LPS; for IC50: without LPS
Description: MTT assay was used to assess the cell viability of RAW 264.7 cells cultured in RPMI-1640 complete media. […] Afterwards, 5 µl of MTT solution were added and incubated for further 4 h. Finally, 150 ul of dimethyl sulfoxide (DMSO) were added and the optical density was assessed at 570 nm using an ELISA plate reader.

[4] = tested on: COX-2; test: In vitro COX-2 inhibition assay (Cayman kit); assay type: biochemical, bovine; details: selectivity index from COX 1 and COX 2 IC50
[5] = tested on: PGE2 production in RAW 264.7 cells; test: PGE2 concentration by ELISA in LPS-treated RAW 264.7 cells; assay type: cell-based; details: Mus musculus, RAW264.7; LPS-induced RAW 264.7 cells
Description: After seeding and incubation of RAW 264.7 cells for 24 h, then the cells were treated with the compounds (4c, 4d, 6a, 6c, 6d and 6e) at different concentrations and with LPS (1 µg/ml) for another 24 h. The concentration of prostaglandin E2 (PGE2) was measured in the culture media using ELISA kit (R&D Systems, Minneapolis, MN)[50].

[6] = target: T1, iNOS (Mus musculus, UniProt P29477); test: iNOS enzymatic activity in LPS-induced RAW 264.7 cells; assay type: cell-based
T1 construct: endogenous in cells; host or cells: RAW 264.7 cells induced with LPS
T1 sequence (P29477 1-1144): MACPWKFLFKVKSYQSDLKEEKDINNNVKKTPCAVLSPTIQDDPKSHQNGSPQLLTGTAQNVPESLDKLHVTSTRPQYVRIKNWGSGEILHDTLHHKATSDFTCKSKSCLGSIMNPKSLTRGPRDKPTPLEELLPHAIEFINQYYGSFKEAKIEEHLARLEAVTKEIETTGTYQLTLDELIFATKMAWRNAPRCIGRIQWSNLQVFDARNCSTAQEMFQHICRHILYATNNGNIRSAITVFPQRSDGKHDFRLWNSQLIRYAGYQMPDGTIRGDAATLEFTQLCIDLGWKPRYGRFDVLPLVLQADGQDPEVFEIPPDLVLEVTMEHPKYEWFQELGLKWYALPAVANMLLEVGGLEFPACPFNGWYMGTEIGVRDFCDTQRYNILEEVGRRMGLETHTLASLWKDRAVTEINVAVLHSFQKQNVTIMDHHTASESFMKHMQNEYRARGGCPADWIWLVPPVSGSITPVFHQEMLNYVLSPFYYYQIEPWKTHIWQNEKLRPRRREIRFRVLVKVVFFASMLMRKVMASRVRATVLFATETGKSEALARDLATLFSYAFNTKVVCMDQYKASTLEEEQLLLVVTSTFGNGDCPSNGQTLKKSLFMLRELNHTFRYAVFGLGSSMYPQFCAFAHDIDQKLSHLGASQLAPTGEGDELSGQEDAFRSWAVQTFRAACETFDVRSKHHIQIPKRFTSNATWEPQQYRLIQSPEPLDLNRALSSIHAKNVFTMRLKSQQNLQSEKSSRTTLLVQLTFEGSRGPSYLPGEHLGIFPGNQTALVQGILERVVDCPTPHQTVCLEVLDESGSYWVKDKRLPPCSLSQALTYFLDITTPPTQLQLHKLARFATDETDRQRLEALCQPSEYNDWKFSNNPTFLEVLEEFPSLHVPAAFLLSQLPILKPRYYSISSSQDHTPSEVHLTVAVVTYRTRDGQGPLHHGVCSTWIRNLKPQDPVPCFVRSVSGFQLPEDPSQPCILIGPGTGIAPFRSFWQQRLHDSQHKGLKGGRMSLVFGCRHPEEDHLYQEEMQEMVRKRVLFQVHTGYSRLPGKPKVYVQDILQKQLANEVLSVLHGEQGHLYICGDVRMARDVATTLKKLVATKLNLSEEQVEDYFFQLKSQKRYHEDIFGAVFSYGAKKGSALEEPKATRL
Description: Then, the NOS assay reaction solution (100 µl/well) was added and incubated for an extra 2 h at 37 °C. The fluorescence with excitation wavelength at 485 nm and emission wavelength at 528 nm was measured using a fluorescent microplate reader.

[7] = target: T2, bovine COX-1 (Ovis aries, UniProt P05979); test: In vitro COX-1 inhibition assay (Cayman kit); assay type: biochemical
T2 construct: purchased Cayman Chemical 560101
T2 sequence (P05979 25-600): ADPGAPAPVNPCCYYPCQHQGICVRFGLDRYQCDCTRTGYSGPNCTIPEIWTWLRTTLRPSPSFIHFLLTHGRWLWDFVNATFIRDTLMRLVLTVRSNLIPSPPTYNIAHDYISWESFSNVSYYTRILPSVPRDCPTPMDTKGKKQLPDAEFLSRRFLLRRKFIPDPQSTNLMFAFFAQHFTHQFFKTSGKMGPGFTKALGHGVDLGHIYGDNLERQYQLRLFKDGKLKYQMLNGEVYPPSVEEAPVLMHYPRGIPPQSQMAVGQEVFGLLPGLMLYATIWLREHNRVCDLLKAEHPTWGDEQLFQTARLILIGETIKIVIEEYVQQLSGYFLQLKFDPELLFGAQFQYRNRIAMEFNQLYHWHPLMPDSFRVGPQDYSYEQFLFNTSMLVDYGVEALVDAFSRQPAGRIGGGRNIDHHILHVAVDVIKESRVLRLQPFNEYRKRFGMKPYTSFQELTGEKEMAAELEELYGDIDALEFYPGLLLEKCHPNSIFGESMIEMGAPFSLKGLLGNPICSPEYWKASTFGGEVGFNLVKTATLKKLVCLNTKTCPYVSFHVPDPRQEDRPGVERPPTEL

[8] = listed as indomethacin, 50 mg/kg

Row | SMILES | % of edoema inhibition (% mean ± SEM), 1 h [1] [%] | % of edoema inhibition (% mean ± SEM), 2 h [1] [%] | % of edoema inhibition (% mean ± SEM), 3 h ([1]; 50 mg/kg) | % of edoema inhibition (% mean ± SEM), 4 h ([1]; 50 mg/kg) | inhibition at 5 µM [2] [%] | melting point [°C] | IC50 [2] [µM] | IC50 at 20 h [3] [µM] | IC50 [3] [µM] | IC50 [5] [µM] | IC50 [6] [µM] | also measured
1 | Cc1ccc(-c2cc(C(F)(F)F)nn2-c2ccc(S(N)(=O)=O)cc2)cc1 [Celecoxib, reference compound] | 10.61 ± 2.59 | 25.43 ± 3.29 | 46.42 ± 2.87% | 12.32 ± 2.42% | – | – | – | – | – | – | – | % of edoema inhibition (% mean ± SEM), 3 h [1]: 46.42%; % of edoema inhibition (% mean ± SEM), 4 h ([1]; listed as celecoxib, 50 mg/kg): 12.32%
2 | COc1ccc(C(=O)/C=C/c2ccc(OCC(=O)ON=C(N)c3ccc(Cl)cc3)cc2)cc1 [Compound 6b, N’-(2-{4-[(1E)-3-(4-Methoxyphenyl)-3-oxoprop-1-en-1-yl]phenoxy}acetoxy) -4-chlorobenzenecarboximidamide] | – | – | – | – | 49.6 ± 2.3 | 192 to 193 | – | – | – | – | – | –
3 | COc1ccc(/C=C/C(=O)c2ccc(OCC(=O)O/N=C(\N)c3ccccc3)cc2)cc1 [Compound 4a, N’-(2-{4-[(2E)-3-(4-Methoxyphenyl)prop-2-enoyl]phenoxy}acetoxy) benzenecarboximidamide] | – | – | – | – | 41.9 ± 1.4 | 164 to 166 | – | – | – | – | – | –
4 | COc1ccc(C(=O)/C=C/c2ccc(OCC(=O)ON=C(N)c3ccc(OC)cc3)cc2)cc1 [Compound 6c, N’-(2-{4-[(1E)-3-(4-Methoxyphenyl)-3-oxoprop-1-en-1-yl]phenoxy}acetoxy)-4-methoxybenzenecarboximidamide] | 11.42 ± 1.75 | 28.44 ± 2.75 | 54.36% and 54.36 ± 2.34% | 62.21% and 62.21 ± 3.46% | 67.1 ± 2.4 | – | 5.92 | > 80 | > 80 | 0.0275 | 2.45 | SI [4]: 7.79; IC50 [7]: 64.4 ± 3.35 µM
5 | COc1ccc(/C=C/C(=O)c2ccc(OCC(=O)ON=C(N)c3ccc(Cl)cc3)cc2)cc1 [Compound 4b, N’-(2-{4-[(2E)-3-(4-Methoxyphenyl)prop-2-enoyl]phenoxy}acetoxy)-4-chlorobenzenecarboximidamide] | – | – | – | – | 47.6 ± 3.6 | 180 to 182 | – | – | – | – | – | –
6 | COc1ccc(/C=C/C(=O)c2ccc(OCC(=O)O/N=C(\N)c3ccc4ccccc4c3)cc2)cc1 [Compound 4f, N’-(2-{4-[(2E)-3-(4-Methoxyphenyl)prop-2-enoyl]phenoxy}acetoxy) naphthalene-2-carboximidamide] | – | – | – | – | 31.2 ± 2.2 | 176 to 178 | – | – | – | – | – | –
7 | COc1ccc(/C=C/C(=O)c2ccc(OCC(=O)ON=C(N)c3ccc([N+](=O)[O-])cc3)cc2)cc1 [Compound 4e, N’-(2-{4-[(2E)-3-(4-Methoxyphenyl)prop-2-enoyl]phenoxy}acetoxy)-4-nitrobenzenecarboximidamide] | – | – | – | – | 44.1 ± 2.8 | 184 to 186 | – | – | – | – | – | % of edoema inhibition (% mean ± SEM), 3 h [1]: 39.26%
8 | COc1ccc(/C=C/C(=O)c2ccc(OCC(=O)ON=C(N)c3ccc(OC)cc3)cc2)cc1 [Compound 4c, N’-(2-{4-[(2E)-3-(4-Methoxyphenyl)prop-2-enoyl]phenoxy}acetoxy)-4-methoxybenzenecarboximidamide] | 11.21 ± 2.41 | 33.62 ± 2.69 | 57.71% and 57.71 ± 2.21% | 69.86% and 69.86 ± 3.51% | 62.3 ± 1.9 | – | 8.61 | > 80 | > 80 | 0.0323 | 3.62 | SI [4]: 6.06; IC50 [7]: 19.9 ± 1.03 µM
9 | COc1ccc2c(c1)c(CC(=O)O)c(C)n2C(=O)c1ccc(Cl)cc1 [Indomethacin, reference compound] | 28.03 ± 1.35 | 45.27 ± 2.48 | 63.71 ± 3.48% | 56.27 ± 2.14% | 25.5 | – | 45.7 | > 80 | > 80 | 0.0766 | 24.6 | % of edoema inhibition (% mean ± SEM), 3 h [1, 8]: 63.71%; % of edoema inhibition (% mean ± SEM), 4 h [1, 8]: 56.27%
10 | COc1ccc(C(=O)/C=C/c2ccc(OCC(=O)O/N=C(\N)c3ccc4ccccc4c3)cc2)cc1 [Compound 6f] | – | – | – | – | 29.4 ± 2.5 | 178 to 179 | – | – | – | – | – | –
11 | COc1ccc(/C=C/C(=O)c2ccc(OCC(=O)ON=C(N)c3ccc(OC)c(OC)c3)cc2)cc1 [Compound 4d, N’-(2-{4-[(2E)-3-(4-Methoxyphenyl)prop-2-enoyl]phenoxy}acetoxy)-3,4-dimethoxybenzenecarboximidamide] | 11.65 ± 2.26 | 34.78 ± 3.34 | 69.5% and 69.50 ± 1.49% | – | 73.5 ± 2.1 | – | 5.73 | > 80 | > 80 | 0.0247 | 2.22 | SI [4]: 0.25; IC50 [7]: 5.82 ± 0.3 µM; % of edoema inhibition (% mean ± SEM), 4 h [1]: 54.21 ± 3.47%

— publication PMC8158245, “Novel chalcone/aryl carboximidamide hybrids as potent anti-inflammatory via inhibition of prostaglandin E2 and inducible NO synthase activities: design, synthesis, molecular docking studies and ADMET prediction” (Journal of Enzyme Inhibition and Medicinal Chemistry, 2021)
